Experiments:
in vitro [1] = conditions: rat, plasma
in vitro [2] = conditions: rat, liver microsomes
Rattus norvegicus [3] = organism: Rattus norvegicus; conditions: in vivo, po, 3 mg/kg
in vivo [4] = conditions: Sprague-Dawley, rat, iv, 1 mg/kg
in vivo [5] = conditions: Sprague-Dawley, rat
Rattus norvegicus [6] = organism: Rattus norvegicus; conditions: in vivo, po, 3 mg/kg; remark: listed apart in the source
in vivo [7] = conditions: CD1, mouse, brain/plasma, ip, 5 mg/kg
in vivo [8] = conditions: CD1, mouse, brain, ip, 5 mg/kg
in vivo [9] = conditions: Sprague-Dawley, rat, plasma, po, 3 mg/kg
in vivo [10] = conditions: Sprague-Dawley, rat, po, 3 mg/kg
in vivo [11] = conditions: Sprague-Dawley, rat, iv, 1 mg/kg; remark: listed apart in the source

SMILES	remaining at 1 h (in vitro [1])	half-life (in vitro [2])	AUC (Rattus norvegicus [3])	Vd (in vivo [4])	half-life (in vivo [5])	F (Rattus norvegicus [6])	Kp at 10 min (in vivo [7])	concentration at 10 min (in vivo [8])	AUC (in vivo [9])	bioavailability (in vivo [10])	clearance (in vivo [11])
COc1ccccc1N1CCN(C(=O)c2cc(-c3ccc(Cl)cc3)n[nH]2)[C@@H](C)C1	100%	2 min									
COc1ccccc1N1CCN(C(=O)c2cc(-c3ccc(Cl)cc3)n(C)n2)CC1	100%	40 min	90501 ng·min/mL	3.3 L/kg	310 min	53%	0.64	1700 ng/g			
COc1ccccc1N1CCN(C(=O)c2cc(-c3ccc(Cl)cc3Cl)n[nH]2)CC1	5%	45 min									
CC(=O)N(C)C1(c2ccccc2)CCN(CCC[C@]2(c3ccc(Cl)c(Cl)c3)CCCN(C(=O)c3ccccc3)C2)CC1 [OSANETANT]		23 min		8.7 L/kg	110 min		0.03	30 ng/g	114 ng·h/mL	17%	57 mL/min/kg
CC[C@H](NC(=O)c1c(O)c(-c2ccccc2)nc2ccccc12)c1ccccc1 [TALNETANT]	100%	60 min		1.4 L/kg	450 min		0.07	340 ng/g	15600 ng·h/mL	53%	1.9 mL/min/kg

From ChEMBL document CHEMBL1759909, “Discovery of 3-aryl-5-acylpiperazinyl-pyrazoles as antagonists to the NK3 receptor” (Bioorg Med Chem Lett, 2011)
